Data on two substances can be found in US4442031A, “Immunopotentiating peptides” (Hoffmann-La Roche Inc., priority 1983, dated 1984).

Where no end group is shown, it is not given here.

The assay relates to Candida albicans ATCC 10231. Nature of the assay: Protective activity against Candida albicans infection in 5-FU immunosuppressed mice. The conditions noted are these: for Survivors Day 8 / Survivors Day 15: ddY mice; for Survivors at Day 8 after infection: Table 6, i.p., ten times with 5-FU, control 1/7. Format: in vivo. The method, then:
In a series of examples, the compounds of formula I were tested for protective activity against opportunistic infections in immunosuppressed mice. Female ddY mice (6 weeks old) weighing about 26 g were pretreated daily for ten days with 5-fluorouracil (5-FU) (25 mg/kg/day, i.p.) and with thymosin α1 or with compounds of formula I (i.p.) at varying dosages. The mice were then infected with Candida albicans ATCC 10231 (1×10^5 cells or more) at 24 hour after the last treatment. One control group was administered 5-FU and saline solution and a second control group received neither 5-FU nor compound of formula I prior to infection with Candida albicans. The number of animals surviving eight days after infection with Candida albicans and 15 days after infection with Candida albicans is presented in the table below.
Normal mice (female ddY mice, 6 weeks old) were highly tolerant to infection with Candida albicans ATCC 10231 at relatively low dose (1-2×10^5 cells, iv.). However, when pretreated daily for ten times with 5-FU (25 mg/kg/day, ip.), the mice were susceptible to infection as shown in Table 6. […] Compound A was also shown to be active against infection with Pseudomonas aeruginosa 5E81-1 and Listeria monocytogenes EGD in the immunosuppressed mice (see Tables 7 and 8).

Setting [1] is: Example 8, 0.4 μg/kg i.p. daily for ten days with 5-FU.
Where [2] appears, read: Example 8, 4.0 μg/kg i.p. daily for ten days with 5-FU.
The mark [3] stands for this setting: Example 8, 40.0 μg/kg i.p. daily for ten days with 5-FU.
Setting [4] is: Example 9, 40.0 μg/kg i.p. daily for ten days with 5-FU.
[5] abbreviates: Example 10, 0.04 μg/kg i.p. daily for ten days with 5-FU.
[6] abbreviates: Example 10, 0.4 μg/kg i.p. daily for ten days with 5-FU.
The mark [7] stands for this setting: Example 10, 4.0 μg/kg i.p. daily for ten days with 5-FU.
The mark [8] stands for this setting: Example 11, 0.04 μg/kg i.p. daily for ten days with 5-FU.
[9] abbreviates: Example 11, 0.4 μg/kg i.p. daily for ten days with 5-FU.
Setting [10] is: Example 11, 4.0 μg/kg i.p. daily for ten days with 5-FU.
Setting [11] is: Example 10, 40.0 μg/kg i.p. daily for ten days with 5-FU.
[12] abbreviates: Example 11, 40.0 μg/kg i.p. daily for ten days with 5-FU.
The mark [13] stands for this setting: Example 11, 400.0 μg/kg i.p. daily for ten days with 5-FU.

As for “KKEVVE [Compound A, L-Lysyl-L-lysyl-L-glutamyl-L-valyl-L-valyl-L-glutamic acid]”, the “Survivors Day 8” value reads like this: under setting [1], 6/7; under setting [2], 5/7; under setting [3], 5/7; (Example 9, 0.4 μg/kg i.p. daily for ten days with 5-FU) 6/7; (Example 9, 4.0 μg/kg i.p. daily for ten days with 5-FU) 5/7; under setting [4], 4/7. In addition, the “Survivors Day 8” value was 6/10 under setting [5]; 9/10 under setting [6]; 9/10 under setting [7]; 6/10 under setting [8]; 9/10 under setting [9]; 9/10 under setting [10]. Besides, the “Survivors Day 15” value is recorded as 5/7 under setting [1]; 4/7 under setting [2]; 2/7 under setting [3]; 4/10 under setting [5]; 8/10 under setting [6]; 8/10 under setting [7]. Moreover, the “Survivors Day 15” value runs as follows: under setting [8], 4/10; under setting [9], 8/10; under setting [10], 8/10. Also, the “Survivors at Day 8 after infection” value is recorded as 6/7 (0.4 μg/kg/day), 5/7 (4 μg/kg/day) and 4/7 (40 μg/kg/day).
As for “thymosin α1 (SDAAVDTSSEITTKDLKEKKEVVEEAEN; ends and bridges not checked; UniProt P01252 2-29, looked up) [peptide isolated from bovine thymus, stimulates maturation, differentiation and function of T cells; U.S. Pat. No. 4,079,127, reference compound]”, the “Survivors Day 8” value reads like this: under setting [3], 5/7; under setting [4], 4/7; under setting [6], 3/10; under setting [7], 6/10; under setting [11], 9/10; under setting [10], 3/10. In addition, the “Survivors Day 8” value runs as follows: under setting [12], 6/10; under setting [13], 8/10. Moreover, the “Survivors Day 15” value is reported as 5/7 under setting [3]; 3/10 under setting [6]; 5/10 under setting [7]; 8/10 under setting [11]; 3/10 under setting [10]; 5/10 under setting [12]. Besides, under setting [13], the “Survivors Day 15” value was 8/10. For the same substance, the “Survivors at Day 8 after infection” value (40 μg/kg/day) was 4/7.
